ChEMBL document CHEMBL5380777, “Efficacy, Mechanism, and Structure-Activity Relationship of 6-Methoxy Benzofuran Derivatives as a Useful Tool for Senile Osteoporosis” (J Med Chem, 2023)
Calls of active or inactive are those of the source. No cut-off for these calls is given here.

Key:
Mus musculus [1] = test: Anti osteoporosis in 2.5 months old SAMP-6 rapid aging mouse model assessed as upregulation of serum BMP2 administered at 30 mg/kg/day, IG continuously for 3 months […]; type: functional, organism-based
[2] = Toxicity in 16 months old C57 mouse assessed as change in total protein level administered at 30 mg/kg/day, IG continuously for 4 months; type: organism-based; settings: in vivo, po, 2920 h
Mus musculus [3] = test: Anti osteoporosis in 16 months old C57 mouse assessed as increase in bone mass in femur from proximal end to the distal end administered at 30 mg/kg/day, IG continuously for 2 to 4 months by micro CT analysis relative to aged control group; type: functional, organism-based; settings: time 2-4 months
Osteoblast [4] = test: Regulation of osteogenesis in 16 months old C57 mouse osteoblast endoplasmic reticulum assessed as increase in Atf4 gene by scRNA-seq analysis; type: functional, cell-based
[5] = Toxicity in 2.5 months old SAMP-6 rapid aging mouse model assessed as morphological change in kidney administered at 30 mg/kg/day, IG continuously for 3 months by hematoxylin and eosin staining analysis; type: organism-based; settings: in vivo, po, 2190 h
Mus musculus [6] = test: Anti osteoporosis in 16 months old C57 mouse assessed as reconstruction of bone microstructure administered at 30 mg/kg/day, IG continuously for 4 months by micro CT analysis relative to aged control group; type: functional, organism-based
Osteoblast [7] = test: Upregulation of transcription factor CSDE1 expression in 16 months old C57 mouse osteoblast by scRNA-seq analysis; type: functional, cell-based
[8] = Toxicity in 16 months old C57 mouse assessed as change in cholesterol level administered at 30 mg/kg/day, IG for 4 months for every 6 days; type: organism-based; settings: in vivo, po, 2920 h
Osteoblast [9] = test: Upregulation of transcription factor […] expression in 16 months old C57 mouse osteoblast by scRNA-seq analysis; type: functional, cell-based
Mus musculus [10] = test: Anti osteoporosis in 16 months old C57 mouse assessed as megakaryocyte level in femur administered at 30 mg/kg/day, IG continuously for 4 months by scRNA-seq analysis (reference value: 1%); type: functional; settings: 2920 h

For `COc1ccc2cc(C(=O)NCCN(C)C)oc2c1.CS(=O)(=O)O`, the Activity (Mus musculus [1]) was “Active”, the Activity [2] was “Non-Toxic” and the Activity (Mus musculus [3]) was “Active”. The Activity (Osteoblast [4]) was “Active”, the Activity [5] was “Non-Toxic” and the Activity (Mus musculus [6]) was “Active”. For the same compound, the Activity (Osteoblast [7]) was “Active”, the Activity [8] was “Non-Toxic” and the Activity (Osteoblast [9]) was “Active”. It also gave an Activity (Mus musculus [10]) of 0.78%.
